# Results as given in BindingDB's records for doi:10.7270/Q2FQ9V6B (Burnham Center For Chemical Genomics, 2012).
# Target: T1, Tyrosine-protein phosphatase non-receptor type 22 (Homo sapiens, UniProt Q9Y2R2)
# T1 sequence (Q9Y2R2 whole entry): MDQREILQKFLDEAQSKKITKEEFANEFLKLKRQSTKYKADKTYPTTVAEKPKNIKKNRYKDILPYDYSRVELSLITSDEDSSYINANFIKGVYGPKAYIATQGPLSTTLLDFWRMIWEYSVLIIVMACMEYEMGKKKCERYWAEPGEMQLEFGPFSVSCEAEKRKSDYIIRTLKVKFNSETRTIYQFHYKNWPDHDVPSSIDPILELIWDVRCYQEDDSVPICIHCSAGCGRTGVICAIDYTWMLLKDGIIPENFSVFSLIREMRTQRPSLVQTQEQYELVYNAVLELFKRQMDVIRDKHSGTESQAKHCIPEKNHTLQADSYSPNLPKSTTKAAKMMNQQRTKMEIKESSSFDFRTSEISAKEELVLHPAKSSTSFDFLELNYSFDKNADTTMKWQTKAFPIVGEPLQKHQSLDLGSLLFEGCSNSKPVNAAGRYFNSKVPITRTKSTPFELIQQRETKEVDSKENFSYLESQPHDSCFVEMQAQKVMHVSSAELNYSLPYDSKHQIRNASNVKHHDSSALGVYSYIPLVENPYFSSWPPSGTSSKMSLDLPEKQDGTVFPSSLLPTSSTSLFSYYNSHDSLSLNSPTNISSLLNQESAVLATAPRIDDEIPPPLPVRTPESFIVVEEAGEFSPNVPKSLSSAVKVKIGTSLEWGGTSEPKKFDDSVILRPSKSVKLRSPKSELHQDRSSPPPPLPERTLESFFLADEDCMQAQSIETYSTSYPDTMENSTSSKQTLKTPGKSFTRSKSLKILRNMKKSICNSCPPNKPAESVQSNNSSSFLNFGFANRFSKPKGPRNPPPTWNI
# Assay: PTPN22 phosphatase inhibition, dose response, selectivity assay for STEP inhibitor project, biochemical (AID 624241)
row,SMILES,IC50
1,O=C(N/N=C/c1ccc(Br)cc1)c1ccc(Br)o1 [5-bromanyl-N-[(E)-(4-bromophenyl)methylideneamino]furan-2-carboxamide],> 100 µM
2,O=C(N/N=C/c1ccc(OC(=O)c2cccs2)cc1)c1cccc(F)c1 [MLS000576933],> 100 µM
3,O=C(Nc1cccc2c(=O)[nH][nH]c(=O)c12)c1ccc([N+](=O)[O-])cc1 [MLS003171605],> 100 µM
4,O=C(NN=Cc1ccccc1O)NN=Cc1ccccc1O [SMR001556943],> 100 µM
5,"Cc1c(CC(=O)O)c(=O)oc2c(C)c(OCc3ccccc3Br)ccc12 [2-[7-[(2-bromophenyl)methoxy]-4,8-dimethyl-2-oxochromen-3-yl]acetic acid]",> 100 µM
6,Cc1ccc(NC(=O)c2ccc3nc(N4CCOCC4)sc3c2)c(Cl)c1 [SMR000624920],> 100 µM
7,"COc1ccc(CN=Nc2nc(O)c(CC(=O)O)s2)cc1OCc1ccc(Cl)cc1Cl [[2-({3-[(2,4-dichlorobenzyl)oxy]-4-methoxybenzylidene}hydrazono)-4-oxo-1,3-thiazolidin-5-yl]acetic acid]",33.8 µM
8,Cc1sc2nc(CSC(C)C(=O)Nc3ccc(Cl)cn3)nc(O)c2c1C (stereo not given) [SMR001268769],> 100 µM
9,O=C(N/N=C/c1cccc(Br)c1)c1ccc(N2CCCC2=O)cc1 [N-[(E)-(3-bromophenyl)methylideneamino]-4-(2-oxidanylidenepyrrolidin-1-yl)benzamide],> 100 µM
10,"NC(=O)C1(N2CCCCC2)CCN(C(=S)Nc2ccc(S(N)(=O)=O)cc2)CC1 [1'-({[4-(aminosulfonyl)phenyl]amino}carbonothioyl)-1,4'-bipiperidine-4'-carboxamide]",> 100 µM
11,CCN1CCN(C(=S)c2ccc(Cl)c(Cl)c2)CC1 [SMR000143195],> 100 µM
12,O=S(=O)(Nc1ccc(Cl)cc1)c1ccc(N2CCOCC2)c(NC(=S)NCCN2CCOCC2)c1,> 100 µM
13,"CCOc1cc(CN=Nc2nc(O)c(CC(=O)O)s2)ccc1OCc1ccc(Cl)cc1Cl [2-[2-[(N''E)-N''-[4-(2,4-dichlorobenzyl)oxy-3-ethoxy-benzylidene]hydrazino]-4-keto-2-thiazolin-5-yl]acetic acid]",7.26 µM
14,S=C1N=C2C(=C3SCCS3)CCCC2C(c2ccccc2)N1 (stereo not given) [MLS000516376],> 100 µM
15,COC(=O)c1ccccc1CSc1nsc(/C=C/N(C)C)c1C#N [SMR000549393],> 100 µM
16,"S=C(NCCc1ccccc1)Nc1c(Cl)cccc1Cl [1-(2,6-dichlorophenyl)-3-(2-phenylethyl)thiourea]",> 100 µM

row,SMILES,IC50
1,O=C(N/N=C/C1C=CC=CC1=O)c1cccc([N+](=O)[O-])c1 (stereo not given) [MLS002667988],> 100 µM
2,O=C(N/N=C/c1ccc(Cl)c([N+](=O)[O-])c1)c1ccc2c(c1)OCCO2 [MLS000587937],> 100 µM
3,COC(=O)Nc1sc2c(c1C(N)=O)CCC(C)C2 (stereo not given) [MLS000683996],> 100 µM
4,COc1ccc(NC(=S)NCCCN2CCCC2)cc1Cl [1-(3-chloro-4-methoxyphenyl)-3-[3-(1-pyrrolidinyl)propyl]thiourea],> 100 µM
5,O=C(N/N=C/c1cccc([N+](=O)[O-])c1)c1ccc(Br)cc1 [4-bromo-N-[(E)-(3-nitrophenyl)methylideneamino]benzamide],> 100 µM
6,"COc1cccc(-c2cc(C(=O)Nc3nc4ccccc4s3)c3ccccc3n2)c1 [N-(1,3-benzothiazol-2-yl)-2-(3-methoxyphenyl)-4-quinolinecarboxamide]",> 100 µM
7,O=C(N/N=C/c1ccncc1)c1cccc(S(=O)(=O)Nc2ccc(Cl)cc2)c1,> 100 µM
8,COc1ccc(OC)c(-n2c(O)c3o[nH]c(-c4ccccc4Cl)c-3c2=O)c1 [SMR000046218],> 100 µM
9,N=C1S/C(=C\c2ccc(O)cc2)C(=O)N1c1ccc(F)cc1 [SMR000298434],> 100 µM
10,OCCN1CCN(C(=S)c2ccc(Br)cc2)CC1 [MLS000577024],> 100 µM
11,"OCCN1CCN(C(=S)c2ccc(Cl)c(Cl)c2)CC1 [(3,4-dichlorophenyl)-[4-(2-hydroxyethyl)-1-piperazinyl]methanethione]",> 100 µM
12,"O=C1Nc2ccc3sc4ccccc4c3c2C1=O [3H-6-Thia-3-aza-cyclopenta[c]fluorene-1,2-dione]",> 100 µM
13,"Cc1c(CCC(=O)O)c(=O)oc2c(C)c(OCc3ccccc3Cl)ccc12 [3-[7-[(2-chlorophenyl)methoxy]-4,8-dimethyl-2-oxochromen-3-yl]propanoic acid]",> 100 µM
14,CSc1ccc(CN=Nc2ccc(S(=O)(=O)Nc3ccccc3C(=O)O)cc2[N+](=O)[O-])cc1 [MLS002245633],2.82 µM
15,O=[N+]([O-])c1ccc(O)c(Nc2ncnc3ccccc23)c1 [4-nitro-2-(4-quinazolinylamino)phenol],> 100 µM

# Further lines, results first:
row,IC50,SMILES
1,> 100 µM,CCOc1ccc(C(=S)N2CCN(C)CC2)cc1 [(4-ethoxyphenyl)-(4-methyl-1-piperazinyl)methanethione]
2,> 100 µM,CC(C)(C)C(=O)Nc1ccc(C(=O)Nc2cccc(Oc3ccc(C(=O)O)c(C(=O)O)c3)c2)cc1 [MLS001181252]
3,> 100 µM,COc1cc(Cl)ccc1N=C(S)N(CCCN1CCOCC1)Cc1cn(C)c2ccccc12 [N'-(4-chloro-2-methoxyphenyl)-N-[(1-methyl-1H-indol-3-yl)methyl]-N-(3-morpholin-4-ylpropyl)thiourea]
4,> 100 µM,"Cc1ccc(-c2nc(NC(=O)CSc3cc(C)c4ccccc4n3)ns2)cc1 [2-[(4-methyl-2-quinolyl)thio]-N-[5-(p-tolyl)-1,2,4-thiadiazol-3-yl]acetamide]"
5,> 100 µM,COc1cccc(Nc2nn3c(=O)c4ccccc4nc3s2)c1
6,> 100 µM,CCc1ccc(OCC(=O)Nc2ccc(-c3nc4ccccc4o3)c(O)c2)cc1 [MLS000109444]
7,> 100 µM,Cc1ccc(N=C(S)N(CCN(C)C)Cc2cccs2)c(C)c1
8,> 100 µM,"CCCN(CC(=O)Nc1ccccc1OC)C(=O)Cc1ccc2c(c1)CCC2 [2-(2,3-dihydro-1H-inden-5-yl)-N-[2-[(2-methoxyphenyl)amino]-2-oxidanylidene-ethyl]-N-propyl-ethanamide]"
9,> 100 µM,CCOC(=O)N1CCC(N(CCN(C)C)C(=S)Nc2ccc(Oc3ccccc3)cc2)CC1 [SMR000311544]
10,> 100 µM,CCOc1ccc(/C=N/NC(=O)c2cc3c(OC)cccc3[nH]2)cc1 [MLS001216500]
11,> 100 µM,O=C(CCc1ccccc1)NNC(=O)c1ccc(NC(=O)c2ccccc2)cc1
12,> 100 µM,S=C(c1cn(CCOc2ccccc2)c2ccccc12)N1CCCC1 [MLS-0109562.0001]
13,> 100 µM,O=C(COc1ccc(/C=N/NC(=O)c2ccccc2O)cc1)Nc1ccccc1 [N-[(E)-[4-(2-anilino-2-oxoethoxy)phenyl]methylideneamino]-2-hydroxybenzamide]
14,> 100 µM,Cc1ccc(C(=S)N2CCN(Cc3ccccc3)CC2)s1 [(5-methyl-2-thiophenyl)-[4-(phenylmethyl)-1-piperazinyl]methanethione]
